Experimental data from patent publication US8883827B2, “Azole derivatives as WTN pathway inhibitors” (Oslo University Hospital HF, priority 2009, dated 2014).
Like-named read-outs stand apart in the source and are kept apart here.

Experiments:
[1] = tested on: SW480 cells; assay: Illumina microarray gene expression analysis; assay type: cell-based; settings: x at 25 μM only
Protocol: A microarray analysis using an Illumina® array was performed in triplicate to investigate differential gene expression in cells treated with a Wnt pathway inhibitor. […] In vitro transcription reactions were incubated overnight (14 hr). Labeled cRNA was hybridized to Illumina® Human-6 v3 BeadChips (Illumina, San Diego, Calif.) at 58° C. overnight, according to the Illumina® Whole-Genome Gene Expression Protocol for BeadStation (Doc. #11226030.rev.C, Illumina Inc.). The hybridized BeadChip was stained with streptavidin-Cy3 (Amersham™, PA43001) for visualization and scanned with an Illumina® BeadArray Reader. The scanned images were imported into BeadStudio 3.1.3.0 (Illumina Inc) for extraction and quality control. A criterion of 0.5-fold change in expression was applied to the analysis. […] A list of differentially expressed genes of interest is given below in tables 1 and 2. […] Many known Wnt target genes (column 3) were influenced in treated cells. Some genes were influenced that are also affected in Ls174T colorectal cancer cells expressing an inducible dominant negative form of TCF-4 (column 4) (van de Wetering et al., Mol. Cell. Biol. (2008) 28(8), p. 2732-44). Other influenced genes that are important for cell cycle control and other genes correlated to regulated canonical Wnt signaling are also shown. The degree of modulation (column 5) is an indication of the degree of change between the non-treated and compound No. 1 treated samples.

[2] = Compound concentration in plasma and tumors of xenograft mice; assay type: in vivo; settings: C.B-Igh-1b/IcrTac-Prkdc scid (CB17/SCID), mouse, intraperitoneal, 24 h after last injection, day 29
Protocol: Daily injections (200 μl, i.p.) followed (two day injection intermissions after every fifth injection day) until experiment end (29 days). At the termination day, 24 hours after the last injection, blood was collected after cardiac puncture and the tumors were removed and weighed. The compound concentration in plasma and tumors was determined using an on-line and off-line Solid Phase Extraction-Capillary Liquid Chromatography (SPE-CapLC) instrumentation coupled to a Time of Flight (TOF) mass spectrometer, as previously described (Wilson, S. R. et al., J. Sep. Sci. 28: 1751-1758, 2005). A Zorbax SB C18 5 μm 150×0.3 mm column (Agilent, […], Calif., USA) was used for separation, and a Knauer K-2600 UV detector was used as a complimentary detector.

[3] = molecular target: T1, MKP5(h) (Homo sapiens, UniProt Q9Y6W6); assay: Phosphatase screen; assay type: biochemical; settings: 0.1% DMSO control = 100%
T1 construct: purchased Millipore (KinaseProfiler service)

[4] = tested on: PP2A(h); assay: Phosphatase screen; assay type: biochemical, human; settings: 10 μM; 0.1% DMSO control = 100%
[5] = molecular target: T2, cKit(h) (Homo sapiens, UniProt P10721); assay: Kinase screen; assay type: biochemical; settings: 0.1% DMSO control = 100%
T2 construct: purchased Millipore (KinaseProfiler service)

[6] = molecular target: T3, cSRC(h) (Homo sapiens, UniProt P12931); assay: Kinase screen; assay type: biochemical; settings: 0.1% DMSO control = 100%
T3 construct: purchased Millipore (KinaseProfiler service)

[7] = molecular target: T4, eEF-2K(h) (Homo sapiens, UniProt O00418); assay: Kinase screen; assay type: biochemical; settings: 0.1% DMSO control = 100%
T4 construct: purchased Millipore (KinaseProfiler service)

[8] = molecular target: T5, JNK3(h) (Homo sapiens, UniProt P53779); assay: Kinase screen; assay type: biochemical; settings: 0.1% DMSO control = 100%
T5 construct: purchased Millipore (KinaseProfiler service)

[9] = molecular target: T6, PKCα(h) (Homo sapiens, UniProt P17252); assay: Kinase screen; assay type: biochemical; settings: 0.1% DMSO control = 100%
T6 construct: purchased Millipore (KinaseProfiler service)

T2 sequence (P10721 26-976): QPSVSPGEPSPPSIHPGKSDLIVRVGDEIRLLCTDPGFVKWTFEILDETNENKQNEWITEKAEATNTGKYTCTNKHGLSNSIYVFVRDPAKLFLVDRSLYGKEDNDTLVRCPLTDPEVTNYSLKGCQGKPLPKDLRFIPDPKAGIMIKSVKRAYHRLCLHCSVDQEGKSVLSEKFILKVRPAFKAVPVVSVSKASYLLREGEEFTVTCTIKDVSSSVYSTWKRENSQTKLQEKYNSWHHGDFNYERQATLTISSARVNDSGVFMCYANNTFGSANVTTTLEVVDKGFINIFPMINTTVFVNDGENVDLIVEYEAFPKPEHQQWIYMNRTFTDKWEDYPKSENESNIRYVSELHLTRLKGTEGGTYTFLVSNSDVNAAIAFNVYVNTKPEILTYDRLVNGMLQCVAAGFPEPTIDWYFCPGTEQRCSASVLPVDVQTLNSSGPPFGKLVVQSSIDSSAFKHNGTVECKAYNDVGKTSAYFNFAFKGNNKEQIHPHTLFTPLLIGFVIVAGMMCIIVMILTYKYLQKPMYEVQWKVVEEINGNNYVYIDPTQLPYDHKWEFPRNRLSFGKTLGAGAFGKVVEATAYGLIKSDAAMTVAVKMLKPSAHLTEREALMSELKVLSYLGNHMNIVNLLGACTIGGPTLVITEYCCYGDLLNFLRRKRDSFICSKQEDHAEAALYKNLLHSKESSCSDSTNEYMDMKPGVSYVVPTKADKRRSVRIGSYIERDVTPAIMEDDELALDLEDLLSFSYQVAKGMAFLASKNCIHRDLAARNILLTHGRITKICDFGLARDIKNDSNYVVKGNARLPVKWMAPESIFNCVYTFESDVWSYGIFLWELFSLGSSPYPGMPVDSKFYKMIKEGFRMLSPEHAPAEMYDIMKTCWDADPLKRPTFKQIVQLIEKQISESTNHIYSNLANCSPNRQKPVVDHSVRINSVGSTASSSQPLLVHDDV
T1 sequence (Q9Y6W6 whole entry): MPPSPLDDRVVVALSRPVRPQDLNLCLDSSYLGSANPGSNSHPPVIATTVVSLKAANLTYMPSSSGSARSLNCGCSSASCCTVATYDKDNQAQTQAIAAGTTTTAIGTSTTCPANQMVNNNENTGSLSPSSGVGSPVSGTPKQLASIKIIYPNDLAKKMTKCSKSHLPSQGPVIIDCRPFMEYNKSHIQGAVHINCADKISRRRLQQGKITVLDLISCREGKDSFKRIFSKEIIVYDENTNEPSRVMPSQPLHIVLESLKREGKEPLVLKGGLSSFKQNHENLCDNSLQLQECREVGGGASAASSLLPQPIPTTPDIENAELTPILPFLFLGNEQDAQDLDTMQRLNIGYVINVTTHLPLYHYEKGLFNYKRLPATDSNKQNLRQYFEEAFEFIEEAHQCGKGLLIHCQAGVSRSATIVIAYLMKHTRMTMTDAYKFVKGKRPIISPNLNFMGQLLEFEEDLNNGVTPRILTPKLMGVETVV
T5 sequence (P53779 whole entry): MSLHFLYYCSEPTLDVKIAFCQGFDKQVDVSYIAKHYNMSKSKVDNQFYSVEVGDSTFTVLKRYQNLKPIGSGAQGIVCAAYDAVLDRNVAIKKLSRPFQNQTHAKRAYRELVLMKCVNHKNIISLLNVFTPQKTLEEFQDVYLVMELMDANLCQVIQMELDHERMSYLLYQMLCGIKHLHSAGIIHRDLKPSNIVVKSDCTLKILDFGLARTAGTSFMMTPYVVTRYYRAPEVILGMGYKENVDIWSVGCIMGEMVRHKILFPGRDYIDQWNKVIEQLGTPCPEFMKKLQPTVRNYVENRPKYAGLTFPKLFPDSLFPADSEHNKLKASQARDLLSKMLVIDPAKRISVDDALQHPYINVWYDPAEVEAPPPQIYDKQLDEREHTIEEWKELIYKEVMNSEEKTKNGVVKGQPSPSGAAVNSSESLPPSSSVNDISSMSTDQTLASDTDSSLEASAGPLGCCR
T3 sequence (P12931 whole entry): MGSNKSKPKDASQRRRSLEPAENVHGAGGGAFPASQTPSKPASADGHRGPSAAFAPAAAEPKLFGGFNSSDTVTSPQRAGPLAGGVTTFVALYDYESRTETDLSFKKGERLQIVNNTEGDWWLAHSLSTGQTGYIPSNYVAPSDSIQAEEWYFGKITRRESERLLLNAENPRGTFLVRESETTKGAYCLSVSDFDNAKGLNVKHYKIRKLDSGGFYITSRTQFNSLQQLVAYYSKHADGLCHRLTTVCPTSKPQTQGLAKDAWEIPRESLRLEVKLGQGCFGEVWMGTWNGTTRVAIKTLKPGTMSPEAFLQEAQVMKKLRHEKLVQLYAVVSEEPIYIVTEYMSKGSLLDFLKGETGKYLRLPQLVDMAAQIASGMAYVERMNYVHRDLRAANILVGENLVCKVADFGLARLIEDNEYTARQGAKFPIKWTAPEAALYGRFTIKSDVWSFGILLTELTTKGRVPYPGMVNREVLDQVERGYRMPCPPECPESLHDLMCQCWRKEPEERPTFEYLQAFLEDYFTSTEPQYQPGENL

## COc1ccc(-n2c(SCc3nc(-c4ccc(C)cc4)no3)nnc2-c2ccncc2)cc1 [Compound 1]
[1]
  Degree of modulation: cyclin-dependent kinase inhibitor 1B (p27, Kip1): − (moderate down-regulation (log^2 ratio of between −0.5 and −1.0))
  Degree of modulation: cysteine-rich, angiogenic inducer, 61: −−− (very strong down-regulation (log^2 ratio of between −1.5 and −2))
  Degree of modulation: disabled homolog 2, mitogen-responsive phosphoprotein (Drosophila): − (moderate down-regulation (log^2 ratio of between −0.5 and −1.0))
  Degree of modulation: dynein, axonemal, heavy chain 3: − (moderate down-regulation (log^2 ratio of between −0.5 and −1.0))
  Degree of modulation: dynein, axonemal, heavy chain 5: + (moderate up-regulation (log^2 ratio of between 0.5 and 1.0))
  Degree of modulation: dynein, light chain, LC8-type 2: − (moderate down-regulation (log^2 ratio of between −0.5 and −1.0))
  Degree of modulation: dynein, light chain, roadblock-type 1: − (moderate down-regulation (log^2 ratio of between −0.5 and −1.0))
  Degree of modulation: ephrin-A4: − (moderate down-regulation (log^2 ratio of between −0.5 and −1.0))
  Degree of modulation: ephrin-B2: ++ (strong up-regulation (log^2 ratio of between 1.0 and 1.5))
  Degree of modulation: epidermal growth factor receptor (erythroblastic leukemia viral (v-erb-b) oncogene homolog, avian): + (moderate up-regulation (log^2 ratio of between 0.5 and 1.0))
  Degree of modulation: ets variant gene 3: −− (strong down-regulation (log^2 ratio of between −1.0 and −1.5))
  Degree of modulation: fibroblast growth factor 20: − (moderate down-regulation (log^2 ratio of between −0.5 and −1.0))
  Degree of modulation: forkhead box F1: + (moderate up-regulation (log^2 ratio of between 0.5 and 1.0))
  Degree of modulation: forkhead box M1: − (moderate down-regulation (log^2 ratio of between −0.5 and −1.0))
  Degree of modulation: frizzled homolog 2 (Drosophila): −− (strong down-regulation (log^2 ratio of between −1.0 and −1.5))
  Degree of modulation: interleukin 8: ++ (strong up-regulation (log^2 ratio of between 1.0 and 1.5))
  Degree of modulation: low density lipoprotein receptor-related protein 5-like: + (moderate up-regulation (log^2 ratio of between 0.5 and 1.0))
  Degree of modulation: matrix metallopeptidase 7 (matrilysin, uterine): − (moderate down-regulation (log^2 ratio of between −0.5 and −1.0))
  Degree of modulation: met proto-oncogene (hepatocyte growth factor receptor): + (moderate up-regulation (log^2 ratio of between 0.5 and 1.0))
  Degree of modulation: mitogen-activated protein kinase kinase kinase kinase 1: − (moderate down-regulation (log^2 ratio of between −0.5 and −1.0))
  Degree of modulation: nitric oxide synthase 3 (endothelial cell): +++ (very strong up-regulation (log^2 ratio of between 1.5 and 2))
  Degree of modulation: origin recognition complex, subunit 1-like (yeast): − (moderate down-regulation (log^2 ratio of between −0.5 and −1.0))
  Degree of modulation: p53 and DNA damage regulated 1: − (moderate down-regulation (log^2 ratio of between −0.5 and −1.0))
  Degree of modulation: paired box 6: − (moderate down-regulation (log^2 ratio of between −0.5 and −1.0))
  Degree of modulation: paired related homeobox 2: − (moderate down-regulation (log^2 ratio of between −0.5 and −1.0))
  Degree of modulation: patched homolog 1 (Drosophila): − (moderate down-regulation (log^2 ratio of between −0.5 and −1.0))
  Degree of modulation: pituitary tumor-transforming 1: − (moderate down-regulation (log^2 ratio of between −0.5 and −1.0))
  Degree of modulation: plasminogen activator, urokinase: + (moderate up-regulation (log^2 ratio of between 0.5 and 1.0))
  Degree of modulation: plasminogen activator, urokinase receptor: + (moderate up-regulation (log^2 ratio of between 0.5 and 1.0))
  Degree of modulation: runt-related transcription factor 2: − (moderate down-regulation (log^2 ratio of between −0.5 and −1.0))
  Degree of modulation: sal-like 4 (Drosophila): + (moderate up-regulation (log^2 ratio of between 0.5 and 1.0))
  Degree of modulation: sex comb on midleg-like 1 (Drosophila): − (moderate down-regulation (log^2 ratio of between −0.5 and −1.0))
  Degree of modulation: snail homolog 2 (Drosophila): ++ (strong up-regulation (log^2 ratio of between 1.0 and 1.5))
  Degree of modulation: topoisomerase (DNA) II alpha 170 kDa: − (moderate down-regulation (log^2 ratio of between −0.5 and −1.0))
  Degree of modulation: tumor necrosis factor receptor superfamily, member 19: − (moderate down-regulation (log^2 ratio of between −0.5 and −1.0))
[2]; plasma, 150 mg/kg, 150 mg/kg group, read-out: concentration in plasma
  concentration at 24 h after the last injection: 1300 ng/mL
[2]; plasma, 300 mg/kg, 300 mg/kg group, read-out: concentration in plasma
  concentration at 24 h after the last injection: 1300 ng/mL
[2]; tumor, 150 mg/kg, 150 mg/kg cohort, read-out: concentration in tumors, mean
  concentration at 24 h after the last injection: 11800 ng/g
[2]; tumor, 150 mg/kg, 150 mg/kg cohort, read-out: concentration in tumors, range
  concentration at 24 h after the last injection: 1900 to 32900 ng/g
[2]; tumor, 300 mg/kg, 300 mg/kg cohort, read-out: concentration in tumors, mean
  concentration at 24 h after the last injection: 2400 ng/g
[2]; tumor, 300 mg/kg, 300 mg/kg cohort, read-out: concentration in tumors, range
  concentration at 24 h after the last injection: 900 to 4900 ng/g
[3]
  activity at 10 µM: 99%
[4]
  Activity (%): 87%
[5]
  activity at 10 µM: 116%
[6]
  activity at 10 µM: 100%
[7]
  activity at 10 µM: 117%
[8]
  activity at 10 µM: 93%
[9]
  activity at 10 µM: 105%
